Measured values reported in patent US12439920B2, “Pyridine n-oxide compound and pest control agent” (Nippon Soda Co., Ltd., priority 2019, dated 2025).

Legend:
Format in all cases: in vivo
Mythimna separata = test: Test of efficacy on Mythimna separata (treated artificial feed); details: second instar larvae, 1 μl of emulsion (I) (5% active ingredient) in 0.8 g artificial feed, fifth day, 25° C.
Experimental: 5 parts of the compound of the present invention, 93.6 parts of dimethylformamide, and 1.4 parts of polyoxyethylene alkyl aryl ether were mixed and dissolved to prepare emulsion (I) containing 5% of the active ingredient. For a control, 93.6 parts of dimethylformamide and 1.4 parts of polyoxyethylene alkyl aryl ether were mixed and dissolved to prepare emulsion (II). An insecticidal rate was calculated according to the following expression: Insecticidal rate (%)=(The number of dead insects/The number of tested insects)×100 A control rate was calculated according to the following expression: Control rate (%)={1−(Nt)/(Nc)}×100 • Nc: The number of parasites in an untreated plot • Nt: The number of parasites in a spray treated plot 0.8 g of commercially available artificial feed (Insecta LFS, manufactured by Nosan Corp.) and 1 μl of the emulsion (I) were well mixed to obtain test feed. A plastic test container (capacity: 1.4 ml) was packed with 0.2 g of the test feed per treatment plot. Then, two second instar larvae of Mythimna separata were inoculated to each treatment plot. A plastic lid was put on the test container so as to prevent escape of the second instar larvae of Mythimna separata. The container was placed in a thermostat chamber of 25° C. On the fifth day, the insecticidal rate and the food intake were examined. The test was conducted in duplicate. […]

Plutella xylostella [1] = test: Test of efficacy on Plutella xylostella (cabbage leaf dip); details: 125 ppm; cabbage leaves dipped 30 seconds; second instar larvae; after 3 days
Experimental: 5 parts of the compound of the present invention, 93.6 parts of dimethylformamide, and 1.4 parts of polyoxyethylene alkyl aryl ether were mixed and dissolved to prepare emulsion (I) containing 5% of the active ingredient. An insecticidal rate was calculated according to the following expression: Insecticidal rate (%)=(The number of dead insects/The number of tested insects)×100 A control rate was calculated according to the following expression: Control rate (%)={1−(Nt)/(Nc)}×100 • Nc: The number of parasites in an untreated plot • Nt: The number of parasites in a spray treated plot The emulsion (I) was diluted with water such that the concentration of the compound of the present invention was 125 ppm. Cabbage leaves were dipped in the dilution for 30 seconds. The resulting cabbage leaves were placed in a petri dish. Five second instar larvae of Plutella xylostella were released thereto. The petri dish was placed in a thermostat chamber having a temperature of 25° C. and a humidity of 60%. Life and death were determined after 3 days from the release of the insects, and the insecticidal rate was calculated. The test was conducted in duplicate.

Aphis craccivora = test: Test of efficacy on Aphis craccivora (spray on black-eyed peas); details: 125 ppm; sprayed; nymphs on black-eyed peas; after 4 days
Experimental: (§1) 5 parts of the compound of the present invention, 93.6 parts of dimethylformamide, and 1.4 parts of polyoxyethylene alkyl aryl ether were mixed and dissolved to prepare emulsion (I) containing 5% of the active ingredient.
(§2) An insecticidal rate was calculated according to the following expression: Insecticidal rate (%)=(The number of dead insects/The number of tested insects)×100 A control rate was calculated according to the following expression: Control rate (%)={1−(Nt)/(Nc)}×100 • Nc: The number of parasites in an untreated plot • Nt: The number of parasites in a spray treated plot
Seedlings of black-eyed peas were raised in 10-cm pots. Aphis craccivora nymphs were inoculated onto primary leaves. The emulsion (I) was diluted with water such that the concentration of the compound of the present invention was 125 ppm. The dilution was sprayed to the black-eyed peas parasitized by the Aphis craccivora nymphs. The black-eyed peas were placed in a thermostat chamber having a temperature of 25° C. and a humidity of 60%. Life and death of Aphis craccivora were determined after 4 days from the spraying, and the insecticidal rate was calculated. The test was conducted in duplicate.

Aphis gossypii = test: Test of efficacy on Aphis gossypii (spray on cucumbers); details: 125 ppm; sprayed; first instar larvae on cucumbers; after 5 days
Experimental: 5 parts of the compound of the present invention, 93.6 parts of dimethylformamide, and 1.4 parts of polyoxyethylene alkyl aryl ether were mixed and dissolved to prepare emulsion (I) containing 5% of the active ingredient. An insecticidal rate was calculated according to the following expression: Insecticidal rate (%)=(The number of dead insects/The number of tested insects)×100 A control rate was calculated according to the following expression: Control rate (%)={1−(Nt)/(Nc)}×100 • Nc: The number of parasites in an untreated plot • Nt: The number of parasites in a spray treated plot Cucumbers were sown in a 10-cm pot. An Aphis gossypii female adult was released to the cucumbers after 10 days from sprouting. On the next day, born first instar larvae were left, and the female adult was removed. Emulsion (I) was diluted with water such that the concentration of the compound of the present invention was 125 ppm. The dilution was sprayed to the cucumbers. The cucumbers were placed in a thermostat chamber having a temperature of 25° C. and a humidity of 60%. Life and death of Aphis gossypii were determined after 5 days, and the insecticidal rate was calculated.

[2] = system: Phyllotreta striolata adults; test: Test of efficacy on Phyllotreta striolata (spray on Qing geng cai seedlings); details: 125 ppm, sprayed on Qing geng cai seedlings, after 7 days
Experimental: as §1, §2
The emulsion (I) was diluted with water such that the concentration of the compound of the present invention was 125 ppm to prepare a test chemical. The dilution was sprayed to Qing geng cai seedlings (at the seventh true leaf stage) planted in 10-cm pots. The Qing geng cai seedlings were dried in air and then placed in a plastic cup. Ten Phyllotreta striolata adults were released thereto. The plastic cup was stored in a thermostat chamber having a temperature of 25° C. and a humidity of 65%. Life and death were determined after 7 days from the release of the insects, and the insecticidal rate was calculated. The test was conducted in duplicate.

Musca domestica = test: Test of efficacy on Musca domestica (treated lump sugar); details: 100 ppm on lump sugar; female adults; after 24 hours
Experimental: as §2
The compound of the present invention was diluted with acetone, and the dilution was added dropwise to 1 g of lump sugar such that the concentration was 100 ppm. The lump sugar was placed in a plastic cup, ten Musca domestica female adults were released, and a lid was put on the cup. The plastic cup was stored at 25° C. Life and death were determined after 24 hours from the release of the insects, and the insecticidal rate was calculated. The test was conducted in duplicate.

Plutella xylostella [3] = test: Test of soil irrigation treatment against Plutella xylostella; details: investigated after 3 days; for Control rate % 21 days after: first instar larvae inoculated 21 days after transplant; for Control rate % 28 days after: first instar larvae inoculated 28 days after transplant
Experimental: 5 parts of the compound of the present invention, 93.6 parts of dimethylformamide, and 1.4 parts of polyoxyethylene alkyl aryl ether were mixed and dissolved to prepare emulsion (I) containing 5% of the active ingredient. An insecticidal rate was calculated according to the following expression: Insecticidal rate (%)=(The number of dead insects/The number of tested insects)×100 A control rate was calculated according to the following expression: Control rate (%)={1−(Nt)/(Nc)}×100 • Nc: The number of parasites in an untreated plot • Nt: The number of parasites in a spray treated plot The emulsion (I) was diluted with water such that the concentration of the compound of the present invention was 500 ppm or 250 ppm. Then, 500 mL of the dilution was subjected to irrigation treatment per 128-hole cell tray in which cabbage seedlings were planted. The cell seedlings were transplanted to No. 4 pots and maintained in a thermostat chamber having a temperature of 25° C. and a humidity of 65%. Then, 50 first instar larvae of Plutella xylostella were inoculated on the whole of a cabbage after 21 days and 28 days from the transplant, respectively. The life and the death of Plutella xylostella were investigated after 3 days, and a control rate was calculated according to the following expression. The test was conducted in quadruplicate. Control rate (%)={1−(Nt)/(Nc)}×100 • Nc: The number of parasites in an untreated plot • Nt: The number of parasites in a spray treated plot

[4] = 250 ppm soil irrigation of cabbage seedlings
[5] = 500 ppm soil irrigation of cabbage seedlings

In the case of CCS(=O)(=O)c1cc(C2CC2)c[n+]([O-])c1-c1nc2cc(S(=O)(=O)C(F)(F)F)ccc2o1 [A-1, 5-cyclopropyl-3-(ethylsulfonyl)-2-(5-((trifluoromethyl)sulfonyl)benzo[d]oxazol-2-yl)pyridine 1-oxide], the insecticidal rate (Mythimna separata; stated as alternative to food intake ('or')) is reported as 100%, the “food intake as compared with the control plot” value (Mythimna separata; stated as alternative to insecticidal rate ('or')) is reported as no more than 10% and the insecticidal rate (Plutella xylostella [1]) is reported as no less than 80%. It also gave an insecticidal rate (Aphis craccivora) of no less than 80%, an insecticidal rate (Aphis gossypii) of no less than 80% and an insecticidal rate [2] of no less than 80%. The insecticidal rate (Musca domestica) was no less than 80%, the “Control rate % 21 days after” value (Plutella xylostella [3]; [4]) was 98% and the “Control rate % 28 days after” value (Plutella xylostella [3]; [4]) was 99%. The “Control rate % 21 days after” value (Plutella xylostella [3]; [5]) was 100% and the “Control rate % 28 days after” value (Plutella xylostella [3]; [5]) was 100%.
